According to ChEMBL document CHEMBL1201862, “PubChem BioAssay data set” (2004):
Activity calls are given as the source filed them.

How the values were obtained:
[1] = target: 26S proteasome non-ATPase regulatory subunit 14 (Homo sapiens, UniProt O00487); experiment: inhibition of proteasome subunit RPN11 – biochemical, fluorescence polarization, uHTS hits, confirmation (AID 602368); type: functional
[2] = target: 72 kDa type IV collagenase (Homo sapiens, UniProt P08253); experiment: Dose Response validation of uHTS RPN11 inhibitor hits using a MMP-2 Fluorescence assay.; type: functional
72 kDa type IV collagenase, sequence (P08253 whole entry): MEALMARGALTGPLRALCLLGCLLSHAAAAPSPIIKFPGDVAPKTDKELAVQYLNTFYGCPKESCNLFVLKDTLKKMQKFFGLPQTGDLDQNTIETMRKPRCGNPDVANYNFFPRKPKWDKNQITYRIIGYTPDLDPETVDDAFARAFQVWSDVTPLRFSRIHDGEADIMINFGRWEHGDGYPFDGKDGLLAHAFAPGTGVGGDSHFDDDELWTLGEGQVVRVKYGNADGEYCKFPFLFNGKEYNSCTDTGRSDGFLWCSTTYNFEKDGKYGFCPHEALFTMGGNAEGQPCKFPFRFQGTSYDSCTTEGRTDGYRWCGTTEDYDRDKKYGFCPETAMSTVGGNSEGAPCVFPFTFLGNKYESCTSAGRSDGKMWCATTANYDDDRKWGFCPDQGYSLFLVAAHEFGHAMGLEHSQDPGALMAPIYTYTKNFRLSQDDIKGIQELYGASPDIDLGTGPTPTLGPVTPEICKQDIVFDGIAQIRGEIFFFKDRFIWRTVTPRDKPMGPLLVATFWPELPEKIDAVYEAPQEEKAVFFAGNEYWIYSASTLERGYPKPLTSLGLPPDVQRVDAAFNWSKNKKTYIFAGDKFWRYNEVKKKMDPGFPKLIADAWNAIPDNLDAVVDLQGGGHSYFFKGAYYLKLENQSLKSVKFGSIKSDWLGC

[3] = target: Prothrombin (Bos taurus, UniProt P00735); experiment: thrombin inhibition, dose response, biochemical, fluorescence polarization, uHTS hits (AID 602369); type: functional
[4] = target: Protein Wnt-3a (Mus musculus, UniProt P27467); experiment: Wnt3a-driven reporter signaling inhibition, dose response, selectivity assay for Gli-SUFU antagonist project, Wnt-LIGHT cells, luminescence (AID 651570); type: functional; settings: read-out: IC50_Mean;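 also: Wnt-LIGHT reporter cells stimulated with conditioned medium from Wnt3a-producing cells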
Protein Wnt-3a, sequence (P27467 whole entry): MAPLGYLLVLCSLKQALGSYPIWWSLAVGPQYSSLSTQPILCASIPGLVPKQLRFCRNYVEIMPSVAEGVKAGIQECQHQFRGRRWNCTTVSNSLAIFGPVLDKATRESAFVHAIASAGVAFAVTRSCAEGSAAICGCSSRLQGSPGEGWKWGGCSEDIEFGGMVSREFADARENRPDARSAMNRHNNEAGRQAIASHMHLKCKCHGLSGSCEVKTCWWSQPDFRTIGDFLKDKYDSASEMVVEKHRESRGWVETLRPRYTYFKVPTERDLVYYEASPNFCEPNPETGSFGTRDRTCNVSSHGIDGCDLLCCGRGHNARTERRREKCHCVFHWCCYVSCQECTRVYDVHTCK

[5] = tested on: HeLa; experiment: HeLa cell cytotoxicity, dose response, cytotoxicity control for MITF activator project, CellTiter-Glo luminescence, cherry-pick samples (AID 540259); type: functional, cell-based; settings: Homo sapiens
[6] = target: T1, Carboxy-terminal domain RNA polymerase II polypeptide A small phosphatase 1 (Homo sapiens, UniProt Q9GZU7); experiment: inhibitors of CTDSP1, concentration-response testing, biochemical assay, absorbance-based, actives from ultra-high-throughput screening (AID 540297); type: functional
T1 sequence (Q9GZU7 whole entry): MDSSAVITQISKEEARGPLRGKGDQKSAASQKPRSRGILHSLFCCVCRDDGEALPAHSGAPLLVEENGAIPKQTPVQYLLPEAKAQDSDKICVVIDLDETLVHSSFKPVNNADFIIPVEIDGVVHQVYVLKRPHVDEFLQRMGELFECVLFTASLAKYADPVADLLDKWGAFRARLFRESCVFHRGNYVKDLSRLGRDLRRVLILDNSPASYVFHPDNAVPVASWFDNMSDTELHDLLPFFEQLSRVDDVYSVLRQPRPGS

[7] = target: SWI/SNF-related matrix-associated actin-dependent regulator of chromatin subfamily A member 2 (Homo sapiens, UniProt P51531); experiment: Luminescence-based cell-based high throughput dose response assay to identify activators of the function of SWI/SNF related, matrix associated, actin dependent regulator of chromatin, subfamily a, member 2 (SMARCA2, BRM).; type: functional
SWI/SNF-related matrix-associated actin-dependent regulator of chromatin subfamily A member 2, sequence (P51531 whole entry): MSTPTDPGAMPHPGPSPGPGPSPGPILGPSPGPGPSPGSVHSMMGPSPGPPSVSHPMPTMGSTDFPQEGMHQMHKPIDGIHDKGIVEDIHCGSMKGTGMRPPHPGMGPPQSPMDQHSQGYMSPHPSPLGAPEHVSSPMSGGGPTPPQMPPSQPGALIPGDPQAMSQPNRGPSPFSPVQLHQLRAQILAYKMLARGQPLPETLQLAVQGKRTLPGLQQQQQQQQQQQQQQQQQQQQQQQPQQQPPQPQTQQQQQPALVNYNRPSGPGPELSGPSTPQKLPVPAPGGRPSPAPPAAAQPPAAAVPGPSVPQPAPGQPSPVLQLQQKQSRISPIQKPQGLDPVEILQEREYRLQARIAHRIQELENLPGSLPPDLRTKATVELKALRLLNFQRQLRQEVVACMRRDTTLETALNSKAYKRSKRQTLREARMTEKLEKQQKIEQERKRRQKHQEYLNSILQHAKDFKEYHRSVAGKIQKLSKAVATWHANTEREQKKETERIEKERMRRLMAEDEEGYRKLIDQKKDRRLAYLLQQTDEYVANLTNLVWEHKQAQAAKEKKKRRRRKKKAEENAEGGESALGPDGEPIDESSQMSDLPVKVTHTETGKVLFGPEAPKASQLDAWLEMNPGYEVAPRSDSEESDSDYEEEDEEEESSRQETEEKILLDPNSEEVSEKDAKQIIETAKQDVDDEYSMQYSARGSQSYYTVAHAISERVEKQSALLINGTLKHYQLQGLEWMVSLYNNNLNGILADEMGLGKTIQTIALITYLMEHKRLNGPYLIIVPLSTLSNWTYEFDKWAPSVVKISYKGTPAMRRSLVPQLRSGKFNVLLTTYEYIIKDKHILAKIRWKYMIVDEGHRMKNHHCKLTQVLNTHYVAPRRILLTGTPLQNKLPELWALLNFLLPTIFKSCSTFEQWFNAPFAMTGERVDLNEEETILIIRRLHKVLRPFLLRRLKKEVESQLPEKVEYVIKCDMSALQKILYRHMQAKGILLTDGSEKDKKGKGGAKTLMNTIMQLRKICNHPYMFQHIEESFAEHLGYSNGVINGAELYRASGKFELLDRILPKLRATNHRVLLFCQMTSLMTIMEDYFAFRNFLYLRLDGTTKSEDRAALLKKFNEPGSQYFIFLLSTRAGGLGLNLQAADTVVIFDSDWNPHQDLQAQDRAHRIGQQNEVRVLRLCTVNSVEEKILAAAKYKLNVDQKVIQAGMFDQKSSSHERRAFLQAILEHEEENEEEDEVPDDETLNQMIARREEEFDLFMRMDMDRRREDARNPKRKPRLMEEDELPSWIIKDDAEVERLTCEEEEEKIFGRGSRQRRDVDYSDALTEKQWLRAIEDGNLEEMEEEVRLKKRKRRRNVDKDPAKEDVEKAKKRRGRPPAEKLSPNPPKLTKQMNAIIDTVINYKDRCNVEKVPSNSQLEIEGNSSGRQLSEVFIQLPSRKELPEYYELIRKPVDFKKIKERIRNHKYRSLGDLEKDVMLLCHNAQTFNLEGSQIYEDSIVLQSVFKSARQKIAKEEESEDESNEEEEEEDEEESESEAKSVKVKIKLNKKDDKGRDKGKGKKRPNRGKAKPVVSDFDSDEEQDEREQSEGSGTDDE

[8] = Counterscreen for activators of the function of SWI/SNF related, matrix associated, actin dependent regulator of chromatin, subfamily a, member 2 (SMARCA2, BRM): Luminescence-based cell-based high throughput dose response assay to identify non-selective compounds using the VP16 reporter assay.; type: functional

26S proteasome non-ATPase regulatory subunit 14, sequence (O00487 whole entry): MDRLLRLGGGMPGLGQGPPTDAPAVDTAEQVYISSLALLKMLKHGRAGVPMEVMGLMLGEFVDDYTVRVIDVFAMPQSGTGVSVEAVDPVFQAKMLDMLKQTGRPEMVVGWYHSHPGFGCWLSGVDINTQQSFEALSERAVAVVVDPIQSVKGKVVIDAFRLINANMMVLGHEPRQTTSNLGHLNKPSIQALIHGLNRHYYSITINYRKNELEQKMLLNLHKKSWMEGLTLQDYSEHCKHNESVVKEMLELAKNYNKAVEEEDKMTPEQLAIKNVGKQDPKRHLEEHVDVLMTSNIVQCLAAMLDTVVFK

COc1ccccc1Cc1c(-c2cccc(Cl)c2)nc2ccc(Br)cn12
IC50 [1]: 14.2 µM (active)
IC50 [2]: > 100 µM (inactive)
IC50 [3]: 8.29 µM (active)

Cc1ccc(NC(=O)/C=C/c2ccco2)cc1S(=O)(=O)N1CCCCCC1
IC50 [4]: 17.7 µM (active)

Cc1ccc(CNC(=O)c2nnn(CC(=O)Nc3cc(C)cc(C)c3)c2N)cc1
IC50 [1]: 35.4 µM (active)
IC50 [2]: > 100 µM (inactive)
IC50 [3]: 76.5 µM (active)

O=C(Nc1ccc(-c2nc3cccnc3s2)cc1)c1ccc(Cl)nc1
AC50 [5]: 201 µM (active)

O=C1NC2c3c(Cl)sc(Cl)c3C(=O)C2O1 (centres undefined)
IC50 [6]: 3.75 µM (active)
EC50 [7]: > 91 µM (inactive)
EC50 [8]: > 91 µM (inactive)

Cc1ccc(C(=O)Nc2cccc(O)c2)cc1S(=O)(=O)N1CCCCCC1
AC50 [5]: 321 µM (active)

c1ccc(C[n+]2cccc(-c3ccccc3)c2)cc1
IC50 [4]: 44.8 µM (inactive)

Cc1cc(NC(=O)CSc2nc3c4ccccc4nc-3c(O)n2-c2ccccc2F)no1
IC50 [4]: 6.29 µM (active)
